Molecular target: T1, IDH R132C (Homo sapiens, UniProt O75874, R132C)
T1 construct: expressed in transfected cells; host or cells: U87 cells
Test: Detection of 2-HG in supernatant of U87-IDH R132C cells
Type: cell-based
Conditions: 72 h, LC-MS-MS, vs control; for inhibition at 0.001 µM: 1 nM compound, read-out: Inhibition rate of compounds on 2-HG in the supernatant of U87-IDH R132C cells, 1 nM; for inhibition at 0.01 µM: 10 nM compound, read-out: Inhibition rate of compounds on 2-HG in the supernatant of U87-IDH R132C cells, 10 nM; for inhibition at 0.1 µM: 100 nM compound, read-out: Inhibition rate of compounds on 2-HG in the supernatant of U87-IDH R132C cells, 100 nM
Protocol: U87 cells overexpressing the IDH R132C mutation were seeded in a 48-well plate at 50,000 cells/well. After the cells were incubated overnight for adhesion, the supernatant was removed. The cell culture media containing serially diluted compounds were added, and the cells were incubated for 72 h. After 72 h, the cultures were collected and diluted 10-fold with water, and acetonitrile was added to extract the metabolites. The 2-HG content in the cultures was analyzed by LC-MS-MS, and the percentage inhibition of compounds on 2-HG in the supernatant was calculated as compared with the control.

T1 sequence (O75874 whole entry R132C): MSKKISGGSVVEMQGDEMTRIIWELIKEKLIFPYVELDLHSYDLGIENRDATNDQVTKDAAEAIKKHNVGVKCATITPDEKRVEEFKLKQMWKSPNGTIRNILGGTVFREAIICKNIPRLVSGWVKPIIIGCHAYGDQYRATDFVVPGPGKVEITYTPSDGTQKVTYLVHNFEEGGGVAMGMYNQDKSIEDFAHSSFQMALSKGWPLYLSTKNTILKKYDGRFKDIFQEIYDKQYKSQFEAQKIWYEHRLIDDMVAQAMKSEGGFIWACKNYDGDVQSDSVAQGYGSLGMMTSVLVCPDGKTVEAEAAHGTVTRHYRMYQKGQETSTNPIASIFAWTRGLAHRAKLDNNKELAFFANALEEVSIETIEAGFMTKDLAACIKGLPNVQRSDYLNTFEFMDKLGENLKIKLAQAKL

Compound	inhibition at 0.001 µM [%]	inhibition at 0.01 µM [%]	inhibition at 0.1 µM [%]
C=CC(=O)N1CCN(C(CC(C)C)c2ccc([C@H](C)Nc3ncc4c(n3)N(C(C)C)C(=O)NC4)cc2)CC1 (stereo partly drawn) [Compound 81]	30 to 60	60 to 90	> 90
C=CC(=O)N1CCN(C(CC2CC2)c2ccc([C@H](C)Nc3ncc4c(n3)N(CC)C(=O)NC4)cc2)CC1 (stereo partly drawn) [Compound 82]	30 to 60	60 to 90	> 90
C=CC(=O)N1CC2(C1)CN(C(CC1CC1)c1ccc([C@H](C)Nc3ncc4cnc(=O)n(C(C)C)c4n3)cc1)C2 (stereo partly drawn) [Compound 86]	60 to 90	60 to 90	> 90
C=CC(=O)N1CCN(C(CC2CC2)c2ccc(C3(Nc4ncc5cnc(=O)n(C(C)C)c5n4)CC3)cc2)CC1 (stereo not drawn) [Compound 106]	30 to 60	60 to 90	> 90
C=CC(=O)N1CCN(C(CC2CC2)c2ccc(C3(Nc4ncc5cnc(=O)n(CC)c5n4)CC3)cc2)CC1 (stereo not drawn) [Compound 109]	60 to 90	60 to 90	> 90
C=CC(=O)N1CCN(C(CC)c2ccc([C@H](C)Nc3ncc4cnc(=O)n(C(C)C)c4n3)cc2)CC1 (stereo partly drawn) [Compound 112]	60 to 90	> 90	> 90
C=CC(=O)N1CCN(C(CC(C)C)c2ccc([C@H](C)Nc3ncc4cnc(=O)n(C(C)C)c4n3)cc2)CC1 (stereo partly drawn) [Compound 113]	60 to 90	> 90	> 90
C=CC(=O)N1CCN(C(CC2CC2)c2ccc([C@H](C)Nc3ncc4cnc(=O)n(CC)c4n3)cc2)CC1 (stereo partly drawn) [Compound 114]	60 to 90	> 90	> 90
C=CC(=O)N1CCN(C(CC)c2ccc([C@H](C)Nc3ncc4cnc(=O)n(CC)c4n3)cc2)CC1 (stereo partly drawn) [Compound 115]	30 to 60	> 90	> 90
C=CC(=O)N1CCN(C(CC(C)C)c2ccc([C@H](C)Nc3ncc4cnc(=O)n(CC)c4n3)cc2)CC1 (stereo partly drawn) [Compound 116]	60 to 90	> 90	> 90
C=CC(=O)N1CCN(C(CC(C)(C)C)c2ccc([C@H](C)Nc3ncc4cnc(=O)n(C(C)C)c4n3)cc2)CC1 (stereo partly drawn) [Compound 124]	30 to 60	60 to 90	> 90
C=CC(=O)N1CCN(C(CC2CCC2)c2ccc([C@H](C)Nc3ncc4cnc(=O)n(C(C)C)c4n3)cc2)CC1 (stereo partly drawn) [Compound 125]	30 to 60	60 to 90	> 90
C=CC(=O)N1CCN(C(CC2(C)CC2)c2ccc([C@H](C)Nc3ncc4cnc(=O)n(CC)c4n3)cc2)CC1 (stereo partly drawn) [Compound 131]	60 to 90	> 90	> 90
C=CC(=O)N1CCN(C(CCC)c2ccc([C@H](C)Nc3ncc4c(n3)N(CC)C(=O)OC4)cc2)CC1 (stereo partly drawn) [Compound 141]	30 to 60	60 to 90	> 90
C=CC(=O)N1CCN(C(CC2CCC2)c2ccc([C@H](C)Nc3ncc4c(n3)N(C(C)C)C(=O)OC4)cc2)CC1 (stereo partly drawn) [Compound 143]	30 to 60	60 to 90	> 90
C=CC(=O)N1CCN(C(CC(C)(C)C)c2ccc([C@H](C)Nc3ncc4c(n3)N(C(C)C)C(=O)OC4)cc2)CC1 (stereo partly drawn) [Compound 146]	30 to 60	60 to 90	> 90
C=CC(=O)N1CCN(C(CC2CC2)c2ccc([C@H](C)Nc3ncc4c(n3)N(C(C)C)C(=O)OC4)cc2)CC1 (stereo partly drawn) [Compound 147]	60 to 90	> 90	> 90
C=CC(=O)N1CCN(C(CC2CC2)c2ccc(C3(Nc4ncc5c(n4)N(C(C)C)C(=O)OC5)CC3)cc2)CC1 (stereo not drawn) [Compound 148]	< 30	60 to 90	> 90
C=CC(=O)N1CCN(C(CC2CC2)c2ccc(C3(Nc4ncc5c(n4)N(CC)C(=O)OC5)CC3)cc2)CC1 (stereo not drawn) [Compound 152]	30 to 60	> 90	> 90
C=CC(=O)N1CCN(C(CC2CCC2)c2ccc(C3(Nc4ncc5c(n4)N(CC)C(=O)OC5)CC3)cc2)CC1 (stereo not drawn) [Compound 153]	30 to 60	60 to 90	> 90
C=CC(=O)N1CCN(C(CC2(C)CC2)c2ccc([C@H](C)Nc3ncc4c(n3)N(CC)C(=O)OC4)cc2)CC1 (stereo partly drawn) [Compound 156]	60 to 90	> 90	> 90
N#Cc1ccnc(N2C(=O)CC[C@H]2C(=O)N(c2cncc(F)c2)[C@H](C(=O)NC2CC(F)(F)C2)c2ccccc2Cl)c1 [Ivosidenib, ivosidenib, reference compound]	< 30	< 30	60 to 90

Results, then the compound that gave them:

inhibition at 0.001 µM [%]	inhibition at 0.01 µM [%]	inhibition at 0.1 µM [%]	Compound
30 to 60	60 to 90	> 90	C=CC(=O)N1CCN([C@H](CC2CC2)c2ccc([C@H](C)Nc3ncc4cnc(=O)n(C(C)C)c4n3)cc2)CC1 [Compound 85-2]
60 to 90	> 90	> 90	C=CC(=O)N1CCN([C@@H](CC2CC2)c2ccc([C@H](C)Nc3ncc4cnc(=O)n(CC)c4n3)cc2)CC1 [Compound 114-1]
30 to 60	> 90	> 90	C=CC(=O)N1CCN([C@H](CC2CC2)c2ccc([C@H](C)Nc3ncc4cnc(=O)n(CC)c4n3)cc2)CC1 [Compound 114-2]
60 to 90	> 90	> 90	C=CC(=O)N1CCN([C@@H](CC)c2ccc([C@H](C)Nc3ncc4cnc(=O)n(CC)c4n3)cc2)CC1 [Compound 116-1]
30 to 60	60 to 90	> 90	C=CC(=O)N1CCN([C@H](CC)c2ccc([C@H](C)Nc3ncc4cnc(=O)n(CC)c4n3)cc2)CC1 [Compound 116-2]
60 to 90	> 90	> 90	C=CC(=O)N1CCN([C@@H](CC2CC2)c2ccc([C@H](C)Nc3ncc4c(n3)N(C(C)C)C(=O)OC4)cc2)CC1 [Compound 147-1]
30 to 60	60 to 90	> 90	C=CC(=O)N1CCN([C@H](CC2CC2)c2ccc([C@H](C)Nc3ncc4c(n3)N(C(C)C)C(=O)OC4)cc2)CC1 [Compound 147-2]
60 to 90	> 90	> 90	C=CC(=O)N1CCN([C@@H](CC23CC(C2)C3)c2ccc([C@H](C)Nc3ncc4c(n3)N(CC)C(=O)OC4)cc2)CC1 [Compound 157-1]
30 to 60	60 to 90	> 90	C=CC(=O)N1CCN([C@H](CC23CC(C2)C3)c2ccc([C@H](C)Nc3ncc4c(n3)N(CC)C(=O)OC4)cc2)CC1 [Compound 157-2]

Source: patent US12559505B2, “IDH mutant inhibitor and use thereof” (WIGEN BIOMEDICINE TECHNOLOGY (SHANGHAI) CO., LTD., priority 2020, dated 2026)
